Values after ≈ are worked out from the molar mass of the structure shown.
Key:
[1] = dissolution of 1 g powder in 100 ml water, visual, with and without stirring, centrifugation and filtration; settings: for appearance of filtrate / solid left on the filter paper: centrifuged at 1000 rpm for 10 seconds, filtered; for visible dissolution in water without stirring: not stirred, one minute (phenoxide), 10 minutes (curcumin); for solubility in water (visual): FIG. 6 (0.5 g in 50 ml), FIGS. 7 and 8 (1 g in 100 ml)
[2] = tested on: exercise capacity and recovery; experiment: case report: exercise performance and recovery of a subject who regularly trains (treadmill, arm curls test, soreness); assay type: in vivo, human; settings: for arm curls test: maximum number of bicep curl repetitions in 30 seconds: 40 lb dumbbell; for arm curls test: maximum number of bicep curl repetitions in 30 seconds / time to exhaustion on the treadmill: 1 gram doses the day/night before and 1 hour before training; for time to recovery (measured by muscle soreness and discomfort): after training; for time to exhaustion on the treadmill: Ifit treadmill, 0 elevation, 5 miles per hour
[3] = tested on: chronic knee and shoulder pain; experiment: case report: oral ingestion by a person with chronic knee and shoulder pain; assay type: in vivo, human; settings: 1 gram twice per day
[4] = solubility of 2 g in 200 ml saturated citric acid solution (pH=3), filtration, visual; settings: for appearance of liquid that passed through the filter: 2 grams in 200 ml saturated citric acid solution
Excerpt: The resulting acidic solution was then passed out by a filter. […]

[5] = in vivo; cited from earlier work
[6] = standard conditions; cited from earlier work
[7] = Lu et al. 2020, cited from earlier work

| SMILES | appearance of filtrate ([1]; 1 g in 100 ml water) | solid left on the filter paper ([1]; 1 g in 100 ml water) | visible dissolution in water without stirring ([1]; 1 g in 100 ml water) | time for all 1 gram to be dissolved in 100 ml of water ([1]; stirring at 1200 rpm with a magnetic stirrer) | solubility in water (visual) [1] | arm curls test: maximum number of bicep curl repetitions in 30 seconds [2] [repetitions] | effect on exercise capacity and recovery (summary) ([2]; person) | time to recovery (measured by muscle soreness and discomfort) ([2]; person) [days] | soreness the day after training ([2]; person, day after training) | time to exhaustion on the treadmill ([2]; person) [min] | onset of improvement in symptoms [3] | pain reduction during the next 30 days ([3]; 30 days) | appearance of liquid that passed through the filter [4] | solubility at acidic pH (conclusion) ([4]; saturated citric acid solution) | solubility in water with stirring ([1]; 1 g in 100 ml water, stirring 1200 rpm) | half-life [5] [h] | solubility in ethanol [6] [µg/mL] | solubility in Phosphate buffer ([7]; Phosphate buffer) [µg/mL] | solubility in water ([7]; water) [µg/mL] |
| --- | --- | --- | --- | --- | --- | --- | --- | --- | --- | --- | --- | --- | --- | --- | --- | --- | --- | --- | --- |
| COc1cc(/C=C/C(=O)/C=C(O)/C=C/c2ccc(O)c(OC)c2)ccc1O.N.N [ammonium phenoxide of curcumin] | the color of curcumin | no solid matter was left on the filter paper | visible at one minute | less than 10 seconds | a lot more water-soluble | 14 | increased their exercise capacity and reduced the needed time for recovery | 1 | noticeably lower | 15.5 | on the second day | continued showing improvement | characteristic orange color of curcumin | increased solubility |  |  |  |  |  |
| COc1cc(/C=C/C(=O)CC(=O)/C=C/c2ccc(O)c(OC)c2)ccc1O [curcumin] | clear and lacked color | all of the curcumin powder was left on the filter paper | no visible sign of curcumin dissolving in water |  | low solubility | 11 | no effect | 2 |  | 13 |  |  | totally clear |  | no solubility even with stirring | ~7 | 1000 (≈ 2710 µM) | 0.310 (≈ 0.842 µM) | 1.622 (≈ 4.4 µM) |
